Data taken from PubChem BioAssay (NCI).
Where “and” joins values, the source holds several entries; their conditions need not be identical. Identical values can stand only once.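 Grown in 96-well plates, cells were treated for 48 hours with each compound at five concentrations. Insufficient inhibition: endpoint recorded as highest concentration tested. GI50 = concentration required for 50% inhibition of growth. The concentration for full growth arrest is given as TGI.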 Where a SMILES comes first, the peptide text is derived from it. Bridges are numbered along the chain shown (N, C = ends). [ ]: non-standard residue; d: D form. The star is where a group is joined. ξ: configuration not given here. ξDab(CH2SO3H) = NC(CCNCS(=O)(=O)O)C(=O)O; Heptanoyl(6-Me) = CC(C)CCCCC(=O)*; Dab = NCC[CH](N)C(=O)O

Assays:
Assay in all cases: NCI tumour cell line growth inhibition, 48 h
EKVX NSCLC = test system: EKVX NSCLC
HCC-2998 colon = test system: HCC-2998 colon
HL-60(TB) leukemia = test system: HL-60(TB) leukemia
HT29 colon = test system: HT29 colon
NCI/ADR-RES ovarian = test system: NCI/ADR-RES ovarian
PC-3 prostate = test system: PC-3 prostate
RPMI-8226 leukemia = test system: RPMI-8226 leukemia
SK-MEL-5 melanoma = test system: SK-MEL-5 melanoma
T-47D breast = test system: T-47D breast
COLO 205 colon = test system: COLO 205 colon

Compound	GI50 (EKVX NSCLC) [µM]	TGI (EKVX NSCLC) [µM]	GI50 (HCC-2998 colon) [µM]	TGI (HCC-2998 colon) [µM]	TGI (HL-60(TB) leukemia) [µM]	GI50 (HT29 colon)	TGI (HT29 colon) [µM]	GI50 (NCI/ADR-RES ovarian) [µM]	TGI (NCI/ADR-RES ovarian) [µM]	GI50 (PC-3 prostate) [µM]	GI50 (RPMI-8226 leukemia) [µM]	TGI (RPMI-8226 leukemia) [µM]	GI50 (SK-MEL-5 melanoma) [µM]	GI50 (T-47D breast) [µM]	TGI (T-47D breast) [µM]	GI50 (COLO 205 colon) [µM]	TGI (COLO 205 colon) [µM]	GI50 (HL-60(TB) leukemia) [µM]	TGI (PC-3 prostate) [µM]	TGI (SK-MEL-5 melanoma) [µM]
N#Cc1c(N)n2c(nc1=Nc1ccc(Cl)cc1)sc1cc(Cl)ccc12	10.2	> 100	2.23	8.94	> 100	5.67 µM and 3.77 µM	> 100	4.69	34.8	4.65	1.26	9.27	8	> 100	> 100					
CCC(C)C1NC(=O)C(CCNCS(=O)(=O)O)NC(=O)C(NC(=O)C(CCNCS(=O)(=O)O)NC(=O)C(NC(=O)C(CCNCS(=O)(=O)O)NC(=O)CCCCC(C)C)C(C)O)CCNC(=O)C(C(C)O)NC(=O)C(CCNCS(=O)(=O)O)NC(=O)C(CCNCS(=O)(=O)O)NC(=O)C(C(C)CC)NC1=O (stereo not drawn) ({Heptanoyl(6-Me)}-[ξDab(CH2SO3H)]T[ξDab(CH2SO3H)][Dab][ξDab(CH2SO3H)]II[ξDab(CH2SO3H)][ξDab(CH2SO3H)]T; lactam 4-C; configuration not given here)	> 25	> 25	5.28	14.2	16.9	7.92 µM	> 25	> 25	> 25	7.97			1.96	> 25	> 25	3.26	8.85	5.23	> 25	11.4
Cc1ccc(-c2cc3c4c(nc5ccccc53)C(=O)c3cccnc3-c4n2)cc1	23.4	59.1	17.2	33.2	> 100	8.75 µM	22.8	14.3	49.7	17.3	4.18	54.9	1.67	22.7	99.4	16.3	30.1	1.35	> 83.8	3.89
Cn1nc(C(F)(F)F)cc1-c1c[nH]c(OCc2ccc(Cl)cc2)c(-c2ccc(Cl)c(C(F)(F)F)c2)c1=O	1.39	> 50	1.23	6.56	2.55	1.51 µM	> 47.5	1.42	> 50	0.756	0.547	2.24	0.568	0.803	3.27	0.935	1.97	1.09	4.32	1.34
C=C1C(=O)O[C@H]2C[C@@H]1CC/C(C)=C/CC/C(C)=C/CC[C@@]2(C)O	> 100	> 100	24.1	74.9	45.7	34.6 µM	> 100	> 100	> 100	29.9	20.4	43.5	37.7	> 100	> 100	44.2	> 100	20.7	95	> 100
S=C(NCCNC(=S)[S][Sn]([c]1ccccc1)([c]1ccccc1)[c]1ccccc1)[S][Sn]([c]1ccccc1)([c]1ccccc1)[c]1ccccc1	0.0304	0.129	0.0219	0.0764	0.312	0.019 µM	0.0584	0.0184	0.0976	0.0311	0.0234	0.147	0.0432	0.02	0.091	0.0166	0.0411	0.093	0.153	0.108
C[C@]12CC[C@@H]3c4cc(OC(F)F)c(OS(N)(=O)=O)cc4CC[C@H]3[C@@H]1CC[C@@H]2OS(N)(=O)=O	1.7	22.5	3.88	17.3	27.6	2.25 µM	22.5	0.696	28.9	1.41	1.03	35.4	1.21	1.56	31.7	2.97	21.4	0.829	30.6	13.4
N=C(N)SCc1c2ccccc2c(CSC(=N)N)c2ccccc12	13.4	51.6	11.3	23.7	23.3	5.94 µM	21.9	23.8	> 100	10.3	2.56	16.8	6.03	3.97	22.1	2.75	14.1	4.06	23.9	20.2
N=N/C(=C\c1c(O)[nH]c2ccccc12)c1ccccc1		> 92		63	17.5		44.9		> 57.2			> 100			> 100		54.6		> 70.7	> 100
N#Cc1c(N2CCOCC2)nc(=S)[nH]c1-c1ccccc1	20.2	> 100	77.2	> 100	> 100	33.5 µM	> 100	53.4	> 100	2.1	13.3	> 100	9.36	4.15	> 100	19	> 100	15.3	8.79	> 100
O=C(/C(=C/c1ccc([N+](=O)[O-])cc1)SCc1ccc(Cl)cc1)c1ccc(F)cc1	3.78	15.2	2.39	5.41	11.1	2 µM	4.12	2.78	11.2	2.12	0.81	4	2.85	4.32	19.3	3.8	14.9	2.82	5.74	8.87
O=[N+]([O-])c1ccc(C2CC(c3ccccc3)=Nc3ccccc3S2)cc1 (stereo not drawn)	> 100	> 100	> 100	> 100	> 100	7.62 µM	> 100	> 100	> 100	8.2	2.82	8.29	> 100	> 100	> 100	> 100	> 100	> 100	> 100	> 100
